# Measurements reported in patent publication US12178210B2, “Insect attractant and killing system” (priority 2020, dated 2024).
# Like-named read-outs stand apart in the source and are kept apart here.
# Conditions: field, Córdoba, initial amount 15 g, UV8, 1.6 mm orifice
# Experimental: The devices consisted of a pesticide coated insecticide transfer envelope (˜10 mg of deltamethrin) equipped with a hook containing an attractant lure on the inside of the envelope (see FIG. 3). Attractant lures inside Magnet™ ORO were labelled and individually weighed at different periods of time. Qualitative identity of the remaining material was assessed by means of FTIR and compared with standards. Each lure was constructed using polypropylene/calcium carbonate film (UV8) as the membrane and Scotchpak™ (3M) polyester laminate film as the impermeable barrier material and a 1.6 mm ( 1/16 in) diameter spherical punch in the impermeable layer exposing the membrane and an ˜8 mm ( 5/16 in) diameter heat seal around the circumference of the punch (referred to as a ring seal). Each prototype contained 15 g of ammonium carbonate as the volatile insect attractant.
# The trials were performed in Córdoba, Spain June-November 2019 where the average temperatures (high/low) are 32/17° C. (90/62° F.) in June, 37/19° C. (98/67° F.) in July, 35/19° C. (95/66° F.) in August, 32/18° C. (90/64° F.) in September, 24/13° C. (76/55° F.) in October, and 18/8° C. (65/47° F.) in November.
smiles,measurement,setting,value
"N.N.O=C(O)O [Ammonium Carbonate, ammonium carbonate]",Average Mass Loss,"day 0 (Jul. 22, 2019)",0.0890 g/day
same,Average Mass Loss,"day 9 (Jul. 31, 2019)",0.1082 g/day
same,Average Mass Loss,"day 21 (Aug. 12, 2019)",0.0948 g/day
same,Average Mass Loss,"day 28 (Aug. 19, 2019)",0.0976 g/day
same,Average Mass Loss,"day 45 (Sep. 5, 2019)",0.0498 g/day
same,Average Mass Loss,"day 57 (Sep. 17, 2019)",0.0111 g/day
same,Average Mass Loss,"day 72 (Oct. 2, 2019)",0.0191 g/day
same,Average Mass Loss,"day 80 (Oct. 10, 2019)",0.0299 g/day
same,Average Mass Loss,"day 91 (Oct. 21, 2019)",0.0001 g/day
same,Average Mass Loss,"day 105 (Nov. 4, 2019)",0.0046 g/day
